# In US12655104B2, “Anticancer compounds selective for ER-positive cancers” (THE BOARD OF TRUSTEES OF THE UNIVERSITY OF ILLINOIS, priority 2020, dated 2026):
# Like-named read-outs stand apart in the source and are kept apart here.
# Key:
# [1] = system: HT-29; experiment: Alamar blue fluorescence viability (IC50), HT-29; assay type: cell-based; details: for IC50: Homo sapiens
# Procedure: (§1) Cancer Cell Lines: Culturing Conditions and Validation. All cell lines were cultured at 37° C. with 5% CO2. All ERα-positive cell lines were grown in media lacking phenol red. MCF-7 were grown in EMEM with 10% FBS and 1% penicillin-streptomycin (P/S). T47D were cultured in MEM with 10% FBS and 1% P/S. TYS and TDG cells were grown in MEM supplemented with 10% CD-FBS and 1% P/S. HCT-116 and MDA-MB-231 cells were cultured in RPMI-1640 supplemented with 10% FBS and 1% P/S. MDA-MB-436 cells were cultured in DMEM supplemented with 10% FBS and 1% P/S. HT-29 were cultured in McCoy's media supplemented with 10% FBS and 1% P/S. All cell lines were used directly from ATCC stocks and/or have been further authenticated using PowerPlex16HS Assay (Promega) as described previously.^54 In short, >1 million cells were harvested and lysed using the cell lysis buffer (50 mM Tris, 50 mM EDTA, 25 mM sucrose, 100 mM NaCl, 1% SDS, pH 8). DNA extraction and short tandem repeats (STRs) profiling for each cell line were carried out at the University of Arizona Genetics Core (UAGC). Autosomal STR profiles were compared to reference databases such as ATCC, DSMZ, and JCRB.
# (§2) Alamar Blue Fluorescence for Anticancer Activity (IC50). 2,000-15,000 cells per well were seeded a 96-well plate. Cells were allowed to adhere before DMSO stock solutions of test compounds were added to each well with a final concentration of DMSO in each well=1%; final volume: 100 μL. At the end of the desired incubation time (e.g., 24 or 72 hours), media in each well was aspirated and new fresh media (no compound, 100 μL) was added. Alamar blue solution (4 mg resazurin per 40 mL PBS) was then added (10 μL). After 2-6 hours incubation, each well's fluorescence (λexcit.=555 nm, λemission.=585 nm) was measured using a SpectraMax M3 plate reader (Molecular Devices). Percent dead was determined by comparison to a 100% dead control: 100 μM raptinal treated cells. Dose dependent curves and IC50 were calculated using Origin Pro V10.
# [2] = system: MDA-MB-436; experiment: Alamar blue fluorescence viability (IC50), MDA-MB-436; assay type: cell-based; details: for IC50: Homo sapiens
# Procedure: as §1, §2
# [3] = Pharmacokinetic (PK) studies in mice; assay type: in vivo
# Procedure: Pharmacokinetic (PK) Studies. […] Mice were then sacrificed in cohorts of 3 at time points (#, #, #). Blood was collected, centrifuged, and plasma separated for quantification of test compound utilizing LC-MS/MS (UIUC Metabolomics Center, Urbana, IL.). Determined compound concentration was then analyzed using non-linear regression programing (WinNonlin) and pharmacokinetic parameters estimated.
# [4] = system: MCF-7 tumors; experiment: MCF-7 orthotopic tumor model; assay type: in vivo, mice
# Procedure: MCF-7 Orthotopic Tumor Model. Nu/J ovariectomized mice (Jackson's lab) were supplemented with a 60-day E2 pellet (0.36 mg, Innovative Research of America) 2-3 days prior to tumor cell inoculation. MCF-7 cells (5×10^6, in 1:1 HBSS:matrigel) were inoculated into the mammary fat pad and allowed to establish and tumors grown to ˜300-400 mm^3 (˜21-28 days to establish). […] Tumor size was measured by caliper, and mouse weights were recorded.
# [5] = system: T47D; experiment: Alamar blue fluorescence viability (IC50), T47D; assay type: cell-based; details: Homo sapiens, 24 h, read-out: IC50 24 hr (μM)
# Procedure: as §1, with “DNA extraction and short tandem repeats (STRs) profiling for each cell line were carried out at the University of Arizona Genetics Core (UAGC). Autosomal STR profiles were compared to reference databases such as ATCC, DSMZ, and JCRB.” left out
# Alamar Blue Fluorescence for Anticancer Activity (IC50). […] After 2-6 hours incubation, each well's fluorescence (λexcit.=555 nm, λemission.=585 nm) was measured using a SpectraMax M3 plate reader (Molecular Devices). Percent dead was determined by comparison to a 100% dead control: 100 μM raptinal treated cells. Dose dependent curves and IC50 were calculated using Origin Pro V10.
# [6] = Maximum tolerated dose (MTD) in rats; assay type: in vivo; details: Sprague Dawley, in vivo, iv; Rat, I.V., single dose; read-out: MTD
# Source text: (§3) Maximum Tolerated Dose (MTD) Experiments in Mice and Rats. […] Rodents were monitored for signs of distress, lethargy, neurotoxicity, and so forth for multiple days after compound administration. […] The MTD was defined as the maximum dose in which any acute side effects observed were tolerated and no lethality observed.
# [7] = system: CD Sprague Dawley IGS rats; experiment: Maximum tolerated dose (MTD) in rats; assay type: in vivo; details: Rat, I.V.
# Source text: as §3
# [8] = female, CD-1, mouse, in vivo, iv, I.V. 20 mg/kg
smiles,measurement,setting,value
"O=C1Nc2c(C(F)(F)F)cccc2[C@@]1(c1ccc(O)cc1)N1CCC(F)(F)CC1 (single isomer, unassigned) [ErSO-DFP]",Fold Change,[1]; Average Fold Change between 24/72 hr IC50 values for MCF-7 and HT-29,1588
same,IC50,"[1]; HT-29, 24 h, read-out: IC50 24 hr (μM)",33 ± 4 µM
same,IC50,"[1]; HT-29, 72 h, read-out: IC50 72 hr (μM)",27 ± 4 µM
same,Fold Change,[2]; Average Fold Change between 24/72 hr IC50 values for MCF-7 and MDA-MB-436,3235
same,IC50,"[2]; MDA-MB-436, 24 h, read-out: IC50 24 hr (μM)",64 ± 3 µM
same,IC50,"[2]; MDA-MB-436, 72 h, read-out: IC50 72 hr (μM)",55 ± 9 µM
same,AUC ratio ErSO-DFP:ErSO,[3]; I.V. 20 mg/kg,0.6
same,CL ratio ErSO-DFP:ErSO,[3]; I.V. 20 mg/kg,1.6
same,Cmax ratio ErSO-DFP:ErSO,[3]; I.V. 20 mg/kg,1.9
same,MRT ratio ErSO-DFP:ErSO,[3]; I.V. 20 mg/kg,0.2
same,Vss ratio ErSO-DFP:ErSO,[3]; I.V. 20 mg/kg,0.3
same,AUC as % of the ErSO value,"[3]; I.V., head-to-head",~60%
same,AUC,[3]; [8],6370 ng·h/mL
same,Cmax,[3]; [8],14700 ng/mL
same,MRT,[3]; [8],52.8 min
same,clearance,[3]; [8],52 mL/min/kg
same,Vd,"[3]; female, CD-1, mouse, in vivo, iv, I.V. 20 mg/kg, read-out: Vss",2.75 L/kg
same,bioavailability,"[3]; female, CD-1, mouse, in vivo, po, read-out: oral availability F %",6%
same,mouse weight change during MCF-7 study,"[4]; I.V. 5 mg/kg once-a-week, three total doses",no significant weight change
same,antitumor effect on MCF-7 tumors,"[4]; I.V. 5 mg/kg once-a-week, three total doses, tumors >300 mm^3",profound regression of MCF-7 tumors
same,increase in therapeutic index (TI) relative to ErSO,[4]; from efficacy data and head-to-head MTD studies,≥ 5 fold
same,IC50,[5],0.016 ± 0.002 µM
same,MTD,[6],> 50 mg/kg
same,Fold Increase Rel. to ErSO (MTD),[7],3.3-5
same,MTD,[7]; single dose,>50 mg/kg
